{"source": "ChEMBL document CHEMBL1201862", "about": "“PubChem BioAssay data set” (2004)", "test_in_all_cases": "DTP human tumour cell line panel, 48 h", "key": {"[1]": {"system": "TK-10"}, "[2]": {"system": "U-251"}, "[3]": {"system": "NCI-H522"}, "[4]": {"system": "SK-MEL-5"}, "[5]": {"system": "SW-620"}, "[6]": {"system": "NCI/ADR-RES"}, "[7]": {"system": "PC-3"}, "[8]": {"system": "SR"}, "[9]": {"system": "786-0"}, "[10]": {"system": "A498"}, "[11]": {"system": "A549"}, "[12]": {"system": "HOP-92"}, "[13]": {"system": "CAKI-1"}, "[14]": {"system": "NCI-H23"}, "[15]": {"system": "UO-31"}, "[16]": {"system": "SF-295"}, "[17]": {"system": "UACC-62"}, "[18]": {"system": "HCC 2998"}, "[19]": {"system": "T47D"}, "[20]": {"system": "K562"}, "[21]": {"system": "IGROV-1"}, "[22]": {"system": "Malme-3M"}, "[23]": {"system": "COLO 205"}, "[24]": {"system": "HCT-15"}, "[25]": {"system": "NCI-H226"}, "[26]": {"system": "MDA-MB-435"}, "[27]": {"system": "MDA-MB-231"}, "[28]": {"system": "HT-29"}, "[29]": {"system": "SF-539"}, "[30]": {"system": "HL-60"}, "[31]": {"system": "SK-MEL-28"}, "[32]": {"system": "CCRF-CEM"}, "[33]": {"system": "MDA-N"}, "[34]": {"system": "SK-OV-3"}, "[35]": {"system": "OVCAR-4"}, "[36]": {"system": "LOX IMVI"}, "[37]": {"system": "MCF7"}, "[38]": {"system": "OVCAR-3"}, "[39]": {"system": "UACC-257"}, "[40]": {"system": "SN12C"}, "[41]": {"system": "HCT-116"}, "[42]": {"system": "OVCAR-5"}, "[43]": {"system": "RPMI-8226"}, "[44]": {"system": "M14"}, "[45]": {"system": "SK-MEL-2"}, "[46]": {"system": "MOLT-4"}, "[47]": {"system": "EKVX"}, "[48]": {"system": "HOP-62"}, "[49]": {"system": "BT-549"}, "[50]": {"system": "ACHN"}, "[51]": {"system": "OVCAR-8"}, "[52]": {"system": "KM12"}, "[53]": {"system": "SNB-75"}, "[54]": {"system": "DU-145"}, "[55]": {"system": "Hs-578T"}, "[56]": {"system": "SF-268"}, "[57]": {"system": "SNB-19"}}, "note": "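Cultured in 96-well plates, cells were exposed to test compound for 48 hours across five concentrations. GI50 marks 50% less growth.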 The source made the active and inactive calls. Cut-off read from the data, not from the text of the source: active = GI50 up to about 1.1 µM and inactive = higher."}
{"smiles": "c1ccc(CNc2nncc3[nH]cnc23)cc1", "values": [{"measurement": "GI50", "setting": "[1]", "value": "> 100 µM (inactive)"}, {"measurement": "GI50", "setting": "[2]", "value": "> 100 µM (inactive)"}, {"measurement": "GI50", "setting": "[3]", "value": "> 100 µM (inactive)"}, {"measurement": "GI50", "setting": "[4]", "value": "> 100 µM (inactive)"}, {"measurement": "GI50", "setting": "[5]", "value": "> 100 µM (inactive)"}, {"measurement": "GI50", "setting": "[6]", "value": "> 100 µM (inactive)"}, {"measurement": "GI50", "setting": "[7]", "value": "> 100 µM (inactive)"}, {"measurement": "GI50", "setting": "[8]", "value": "> 100 µM (inactive)"}, {"measurement": "GI50", "setting": "[9]", "value": "> 100 µM (inactive)"}, {"measurement": "GI50", "setting": "[10]", "value": "> 100 µM (inactive)"}, {"measurement": "GI50", "setting": "[11]", "value": "> 100 µM (inactive)"}, {"measurement": "GI50", "setting": "[12]", "value": "69.8 µM (inactive)"}, {"measurement": "GI50", "setting": "[13]", "value": "> 100 µM (inactive)"}, {"measurement": "GI50", "setting": "[14]", "value": "> 100 µM (inactive)"}, {"measurement": "GI50", "setting": "[15]", "value": "> 100 µM (inactive)"}, {"measurement": "GI50", "setting": "[16]", "value": "> 100 µM (inactive)"}, {"measurement": "GI50", "setting": "[17]", "value": "> 100 µM (inactive)"}, {"measurement": "GI50", "setting": "[18]", "value": "> 100 µM (inactive)"}, {"measurement": "GI50", "setting": "[19]", "value": "> 100 µM (inactive)"}, {"measurement": "GI50", "setting": "[20]", "value": "> 100 µM (inactive)"}, {"measurement": "GI50", "setting": "[21]", "value": "> 100 µM (inactive)"}, {"measurement": "GI50", "setting": "[22]", "value": "59.6 µM (inactive)"}, {"measurement": "GI50", "setting": "[23]", "value": "> 100 µM (inactive)"}, {"measurement": "GI50", "setting": "[24]", "value": "> 100", "unit": "µM"}, {"measurement": "GI50", "setting": "[25]", "value": "> 100 µM (inactive)"}, {"measurement": "GI50", "setting": "[26]", "value": "> 100 µM (inactive)"}, {"measurement": "GI50", "setting": "[27]", "value": "> 100 µM (inactive)"}, {"measurement": "GI50", "setting": "[28]", "value": "> 100 µM (inactive)"}, {"measurement": "GI50", "setting": "[29]", "value": "> 100 µM (inactive)"}, {"measurement": "GI50", "setting": "[30]", "value": "> 100 µM (inactive)"}, {"measurement": "GI50", "setting": "[31]", "value": "> 100 µM (inactive)"}, {"measurement": "GI50", "setting": "[32]", "value": "> 100 µM (inactive)"}, {"measurement": "GI50", "setting": "[33]", "value": "> 100 µM (inactive)"}, {"measurement": "GI50", "setting": "[34]", "value": "> 100 µM (inactive)"}, {"measurement": "GI50", "setting": "[35]", "value": "> 100 µM (inactive)"}, {"measurement": "GI50", "setting": "[36]", "value": "88.9 µM (inactive)"}, {"measurement": "GI50", "setting": "[37]", "value": "> 100 µM (inactive)"}, {"measurement": "GI50", "setting": "[38]", "value": "> 100 µM (inactive)"}, {"measurement": "GI50", "setting": "[39]", "value": "> 100 µM (inactive)"}, {"measurement": "GI50", "setting": "[40]", "value": "> 100 µM (inactive)"}, {"measurement": "GI50", "setting": "[41]", "value": "> 100 µM (inactive)"}, {"measurement": "GI50", "setting": "[42]", "value": "> 100 µM (inactive)"}, {"measurement": "GI50", "setting": "[43]", "value": "> 100 µM (inactive)"}, {"measurement": "GI50", "setting": "[44]", "value": "> 100 µM (inactive)"}, {"measurement": "GI50", "setting": "[45]", "value": "> 100 µM (inactive)"}, {"measurement": "GI50", "setting": "[46]", "value": "> 100 µM (inactive)"}, {"measurement": "GI50", "setting": "[47]", "value": "> 100 µM (inactive)"}, {"measurement": "GI50", "setting": "[48]", "value": "> 100 µM (inactive)"}, {"measurement": "GI50", "setting": "[49]", "value": "> 100 µM (inactive)"}, {"measurement": "GI50", "setting": "[50]", "value": "> 100 µM (inactive)"}, {"measurement": "GI50", "setting": "[51]", "value": "> 100 µM (inactive)"}, {"measurement": "GI50", "setting": "[52]", "value": "> 100 µM (inactive)"}, {"measurement": "GI50", "setting": "[53]", "value": "> 100 µM (inactive)"}]}
{"smiles": "C[C@H]1CC[C@@]2(OC1)O[C@H]1C[C@H]3[C@@H]4CC[C@@H]5C[C@@H](OC6OC(CO)C(O)C(O)C6OC6OC(CO)C(O)C(O)C6O)CC[C@]5(C)[C@H]4CC[C@]3(C)[C@H]1[C@@H]2C", "note": "(some centres not stated)", "values": [{"measurement": "GI50", "setting": "[1]", "value": "1.94 µM (inactive)"}, {"measurement": "GI50", "setting": "[2]", "value": "2.26 µM (inactive)"}, {"measurement": "GI50", "setting": "[3]", "value": "2.71 µM (inactive)"}, {"measurement": "GI50", "setting": "[4]", "value": "2.18 µM (inactive)"}, {"measurement": "GI50", "setting": "[5]", "value": "1.77 µM (inactive)"}, {"measurement": "GI50", "setting": "[6]", "value": "2.99 µM (inactive)"}, {"measurement": "GI50", "setting": "[7]", "value": "2.13 µM (inactive)"}, {"measurement": "GI50", "setting": "[8]", "value": "2.07 µM (inactive)"}, {"measurement": "GI50", "setting": "[54]", "value": "2.34 µM (inactive)"}, {"measurement": "GI50", "setting": "[9]", "value": "2.01 µM (inactive)"}, {"measurement": "GI50", "setting": "[11]", "value": "2 µM (inactive)"}, {"measurement": "GI50", "setting": "[55]", "value": "2.44 µM (inactive)"}, {"measurement": "GI50", "setting": "[12]", "value": "2.37 µM (inactive)"}, {"measurement": "GI50", "setting": "[13]", "value": "1.8 µM (inactive)"}, {"measurement": "GI50", "setting": "[14]", "value": "2.31 µM (inactive)"}, {"measurement": "GI50", "setting": "[15]", "value": "1.99 µM (inactive)"}, {"measurement": "GI50", "setting": "[16]", "value": "2.22 µM (inactive)"}, {"measurement": "GI50", "setting": "[17]", "value": "2.4 µM (inactive)"}, {"measurement": "GI50", "setting": "[18]", "value": "2.02 µM (inactive)"}, {"measurement": "GI50", "setting": "[19]", "value": "1.99 µM (inactive)"}, {"measurement": "GI50", "setting": "[56]", "value": "2.3 µM (inactive)"}, {"measurement": "GI50", "setting": "[20]", "value": "2.07 µM (inactive)"}, {"measurement": "GI50", "setting": "[21]", "value": "2.3 µM (inactive)"}, {"measurement": "GI50", "setting": "[22]", "value": "2.62 µM (inactive)"}, {"measurement": "GI50", "setting": "[23]", "value": "1.9 µM (inactive)"}, {"measurement": "GI50", "setting": "[24]", "value": 1.99, "unit": "µM"}, {"measurement": "GI50", "setting": "[25]", "value": "2.34 µM (inactive)"}, {"measurement": "GI50", "setting": "[26]", "value": "2.15 µM (inactive)"}, {"measurement": "GI50", "setting": "[27]", "value": "2.09 µM (inactive)"}, {"measurement": "GI50", "setting": "[28]", "value": "2 µM (inactive)"}, {"measurement": "GI50", "setting": "[29]", "value": "2.03 µM (inactive)"}, {"measurement": "GI50", "setting": "[30]", "value": "0.889 µM (active)"}, {"measurement": "GI50", "setting": "[32]", "value": "1.58 µM (inactive)"}, {"measurement": "GI50", "setting": "[34]", "value": "1.69 µM (inactive)"}, {"measurement": "GI50", "setting": "[35]", "value": "2.33 µM (inactive)"}, {"measurement": "GI50", "setting": "[36]", "value": "1.99 µM (inactive)"}, {"measurement": "GI50", "setting": "[57]", "value": "2.18 µM (inactive)"}, {"measurement": "GI50", "setting": "[37]", "value": "2.1 µM (inactive)"}, {"measurement": "GI50", "setting": "[38]", "value": "2.16 µM (inactive)"}, {"measurement": "GI50", "setting": "[39]", "value": "2.15 µM (inactive)"}, {"measurement": "GI50", "setting": "[40]", "value": "2.07 µM (inactive)"}, {"measurement": "GI50", "setting": "[41]", "value": "2.01 µM (inactive)"}, {"measurement": "GI50", "setting": "[42]", "value": "1.81 µM (inactive)"}, {"measurement": "GI50", "setting": "[43]", "value": "1.9 µM (inactive)"}, {"measurement": "GI50", "setting": "[44]", "value": "2.06 µM (inactive)"}, {"measurement": "GI50", "setting": "[45]", "value": "2.28 µM (inactive)"}, {"measurement": "GI50", "setting": "[46]", "value": "1.84 µM (inactive)"}, {"measurement": "GI50", "setting": "[47]", "value": "2.08 µM (inactive)"}, {"measurement": "GI50", "setting": "[48]", "value": "2.25 µM (inactive)"}, {"measurement": "GI50", "setting": "[49]", "value": "2.35 µM (inactive)"}, {"measurement": "GI50", "setting": "[50]", "value": "2.11 µM (inactive)"}, {"measurement": "GI50", "setting": "[51]", "value": "2.45 µM (inactive)"}, {"measurement": "GI50", "setting": "[52]", "value": "2.6 µM (inactive)"}, {"measurement": "GI50", "setting": "[53]", "value": "2.24 µM (inactive)"}]}
